We go through 15 compounds from patent US20190135834A1, “5-SUBSTITUTED AZABENZIMIDAZOLE DERIVATIVE HAVING ???? ACTIVATION ACTION” (Shionogi & Co., Ltd., priority 2016, published 2019).

This test has as its target T1, Human AMPK α2ß2γ1 (Homo sapiens, UniProt O43741+P54646).
T1 construct: The full length cDNAs of human AMPK ß2 (NM_005399.3) and human AMPK α2 (NM_006252.3); The full length cDNAs of human AMPK ß2 (NM_005399.3); 6xHis (N); made in house; host or cells: Escherichia coli BL21 CodonPlus (DE3)-RIL
As to the kind of experiment: Test Example 2: evaluation of an activator for AMP-activated protein kinase (AMPK), LabChip mobility shift assay with CaMKK2-phosphorylated enzyme. The test is classed as biochemical. The settings on record: for EC150 (compound concentration showing 150% relative to the control (100%)): FL-Peptide 7 substrate, 25° C., 2 hours; for Emax: relative to control (100%), read-out: Emax (maximum rate of increase in activity within the measurement range). As to the method: The full length cDNAs of human AMPK ß2 (NM_005399.3) and human AMPK α2 (NM_006252.3) were inserted into the MCS1 and MCS2 of the pETDuet-1 vector to prepare a human AMPK ß2 and human AMPK α2 (6× His tag at the 5′ terminus) expressing plasmid. The plasmid was cotransfected with an expression plasmid, in which the full length cDNA of human AMPK γ1 (NM_002733.3) had been inserted into pET28b(+), into BL21 CodonPlus (DE3)-RIL to obtain an expression strain. The expression strain was cultured in TB medium, followed by induction with 0.5 mM IPTG, and cultured at 25° C. for 3 hours and then harvested. After ultrasonication, supernatant was collected and applied to Histrap FF column (GE) and RESOURCE Q column (GE) to prepare 12.5 mg of purified sample containing three types of subunit from 1.8 L of broth.
Preparation method of human CaMKK2 used to impart activity to AMPK An expression vector, in which the full length cDNA of human CAMKK ß (NM_172226.1) had been inserted into pGEX-6P-3, was transfected into BL21 Star (DE3). The expression strain was cultured in TB medium, followed by induction with 0.5 mM IPTG, and cultured at 25° C. for 3 hours and then harvested. After ultrasonication, supernatant was collected and applied to GSTrap FF column (GE) to prepare 14 mg of GST-fused CAMKK ß from 720 ml of broth.
Thus, phosphorylation treatment was carried out as pretreatment.
Human AMPK α2ß2γ1 in an amount to give a conversion rate of approximately 10% by reaction for 2 hours, and CaMKK2 in an amount capable of sufficiently imparting activity to AMPK for one hour were mixed in a buffer solution consisting of a 50 mM HEPES-NaOH buffer solution (pH 7.0), 100 mM NaCl, 5 mM magnesium chloride, 0.1% bovine serum albumin, 0.2 mM sodium orthovanadate(V), 1 mM ethylene glycol-bis(2-aminoethyl ether)-N,N,N′,N′-tetraacetic acid (EGTA), 5 mM disodium ß-glycerophosphate, 1 mM dithiothreitol and 0.2 mM ATP, and the resulting liquid was left to stand at 25° C. for 1 to 1.5 hours to sufficiently phosphorylate AMPK.
After that, to the enzyme liquid, which had been subjected to phosphorylation treatment, a compound dissolved in DMSO was added so as to have a 1% DMSO concentration. The resulting liquid was left to stand for 10 minutes.
To the liquid, a substrate solution consisting of a 50 mM HEPES-NaOH buffer solution (pH 7.0), 100 mM NaCl, 10 mM magnesium chloride, 0.1% bovine serum albumin, 0.2 mM sodium orthovanadate(V), 1 mM ethylene glycol-bis(2-aminoethyl ether)-N,N,N′,N′-tetraacetic acid (EGTA), 5 mM disodium ß-glycerophosphate, 2 mM dithiothreitol, 0.4 mM ATP and 3 μM FL-Peptide 7 (manufactured by Caliper Life Sciences, Inc.) was added in equal amount (10 μl in total). The resulting liquid was allowed to react at 25° C. for 2 hours, and 10 μl of 20 mM EDTA was added thereto to stop the reaction.
To detect phosphorylated fluorescent substrates, the reaction mixture was applied to a measuring device, LabChip EZ Reader II manufactured by Caliper Life Science, Inc., for detecting fluorescence by using differences in mobility due to differences in charge. The setting conditions for the device were pressure, −1.5 PSI; upstream voltage, −2250 V; downstream voltage, −400 V; post sample buffer sip time, 40 seconds; final delay, 120 seconds; and peak order, Product First.
A conversion rate was calculated from the peak heights of the obtained substrate and product. The conversion rate when not containing a compound was used as a control, and a concentration dependent curve was made by plotting the rate of increase in activity to the control at each concentration of a compound.

T1 sequence (P54646 whole entry): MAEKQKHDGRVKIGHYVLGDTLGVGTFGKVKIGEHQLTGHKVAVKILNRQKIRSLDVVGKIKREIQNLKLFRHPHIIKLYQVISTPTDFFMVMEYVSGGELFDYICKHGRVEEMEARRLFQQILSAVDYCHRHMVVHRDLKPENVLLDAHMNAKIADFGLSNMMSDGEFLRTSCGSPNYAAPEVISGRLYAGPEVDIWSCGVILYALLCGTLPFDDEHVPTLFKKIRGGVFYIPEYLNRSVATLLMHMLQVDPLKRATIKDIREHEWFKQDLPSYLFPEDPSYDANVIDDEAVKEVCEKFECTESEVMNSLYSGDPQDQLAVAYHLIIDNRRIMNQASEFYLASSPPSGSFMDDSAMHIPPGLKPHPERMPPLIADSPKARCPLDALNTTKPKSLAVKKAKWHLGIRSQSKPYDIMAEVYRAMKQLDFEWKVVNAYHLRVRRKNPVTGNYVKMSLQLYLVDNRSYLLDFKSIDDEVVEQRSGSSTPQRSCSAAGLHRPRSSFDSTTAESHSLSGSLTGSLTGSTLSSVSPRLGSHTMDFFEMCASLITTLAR
T1 sequence (O43741 whole entry): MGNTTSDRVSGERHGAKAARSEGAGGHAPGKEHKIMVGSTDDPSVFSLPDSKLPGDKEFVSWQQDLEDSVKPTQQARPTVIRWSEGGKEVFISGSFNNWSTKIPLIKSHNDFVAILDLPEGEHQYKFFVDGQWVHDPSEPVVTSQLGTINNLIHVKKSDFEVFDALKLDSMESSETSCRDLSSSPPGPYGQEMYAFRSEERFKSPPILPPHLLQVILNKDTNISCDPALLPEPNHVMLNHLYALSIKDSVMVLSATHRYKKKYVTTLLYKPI
T1 sequence (P54619 whole entry partner): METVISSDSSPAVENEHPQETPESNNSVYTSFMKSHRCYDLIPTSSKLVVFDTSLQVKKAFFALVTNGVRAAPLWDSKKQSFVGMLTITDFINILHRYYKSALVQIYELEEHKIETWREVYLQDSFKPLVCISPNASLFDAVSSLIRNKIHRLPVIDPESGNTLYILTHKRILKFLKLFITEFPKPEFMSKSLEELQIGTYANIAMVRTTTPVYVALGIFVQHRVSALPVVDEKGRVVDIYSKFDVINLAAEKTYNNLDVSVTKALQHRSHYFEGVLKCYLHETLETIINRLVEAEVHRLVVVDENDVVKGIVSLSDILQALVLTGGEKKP

For `COCCCc1cnc2c(c1)CCC2Nc1nc2nc(O[C@@H]3CO[C@H]4[C@@H]3OC[C@H]4O)[nH]c2cc1Cl` (single isomer, unassigned) [Compound I-1-10], the “EC150 (compound concentration showing 150% relative to the control (100%))” value was 8.4 nM and the maximal effect (Emax) – broadly, the greatest response seen or fitted, relative to the assay's reference – was 608%.

With `COC/C=C/c1cnc2c(c1)CCC2Nc1nc2nc(O[C@@H]3CO[C@H]4[C@@H]3OC[C@H]4O)[nH]c2cc1Cl` (single isomer, unassigned) [Compound I-1-13], the “EC150 (compound concentration showing 150% relative to the control (100%))” value turned out to be 2 nM and the Emax amounted to 604%.

`COC/C=C/c1cc(F)c2c(c1)CCC2Oc1nc2nc(O[C@@H]3CO[C@H]4[C@@H]3OC[C@H]4O)[nH]c2cc1Cl` (single isomer, unassigned) [Compound I-1-19]: the “EC150 (compound concentration showing 150% relative to the control (100%))” value is 3.5 nM and the maximal effect (Emax) was determined as 404%.

In the case of `Cn1cc(-c2cc(F)c3c(c2)CCC3Oc2nc3nc(O[C@@H]4CO[C@H]5[C@@H]4OC[C@H]5O)[nH]c3cc2Cl)cn1` (single isomer, unassigned) [Compound I-1-20], the “EC150 (compound concentration showing 150% relative to the control (100%))” value is 4.3 nM and the maximal response (Emax) was 403%.

For `Cn1ccc(-c2cc(F)c3c(c2)CCC3Oc2nc3nc(O[C@@H]4CO[C@H]5[C@@H]4OC[C@H]5O)[nH]c3cc2Cl)cc1=O` (single isomer, unassigned) [Compound I-1-23], the “EC150 (compound concentration showing 150% relative to the control (100%))” value is 1.3 nM and the maximum response (Emax) amounted to 454%.

Regarding `Cn1cc(-c2cc(F)c3c(c2)CCC3Nc2nc3nc(O[C@@H]4CO[C@H](CO)C4)[nH]c3cc2Cl)cn1` (single isomer, unassigned) [Compound I-1-29], the “EC150 (compound concentration showing 150% relative to the control (100%))” value was determined as 1.9 nM and the Emax was determined as 426%.

In the case of `O[C@@H]1CO[C@H]2[C@@H]1OC[C@H]2Oc1nc2nc(NC3CCc4cc(Br)cnc43)c(Cl)cc2[nH]1` (stereo partly drawn) [Compound I-1-4], the “EC150 (compound concentration showing 150% relative to the control (100%))” value was 11 nM and the Emax is 547%.

Take `OC/C=C/c1cnc2c(c1)CCC2Nc1nc2nc(O[C@@H]3CO[C@H]4[C@@H]3OC[C@H]4O)[nH]c2cc1Cl` (stereo partly drawn) [Compound I-1-6]: the “EC150 (compound concentration showing 150% relative to the control (100%))” value came to 6.8 nM and the maximum response (Emax) was determined as 516%.

For `Cn1cc(-c2cnc3c(c2)CCC3Nc2nc3nc(O[C@@H]4CO[C@H]5[C@@H]4OC[C@H]5O)[nH]c3cc2Cl)cn1` (stereo partly drawn) [Compound I-1-7], the “EC150 (compound concentration showing 150% relative to the control (100%))” value is given as 1.6 nM and the Emax came to 614%.

Take `COCCOc1cnc2c(c1)CCC2Nc1nc2nc(O[C@@H]3CO[C@H]4[C@@H]3OC[C@H]4O)[nH]c2cc1Cl` (stereo partly drawn) [Compound I-1-11]: the “EC150 (compound concentration showing 150% relative to the control (100%))” value was found to be 9.8 nM and the Emax turned out to be 606%.

With `COCCNc1cnc2c(c1)CCC2Nc1nc2nc(O[C@@H]3CO[C@H]4[C@@H]3OC[C@H]4O)[nH]c2cc1Cl` (stereo partly drawn) [Compound I-1-14], the “EC150 (compound concentration showing 150% relative to the control (100%))” value was 33 nM and the Emax turned out to be 371%.

For the compound `Cn1cc(-c2cnc3c(c2)CCC3Oc2nc3nc(O[C@@H]4CO[C@H]5[C@@H]4OC[C@H]5O)[nH]c3cc2Cl)cn1` (stereo partly drawn) [Compound I-1-15], the “EC150 (compound concentration showing 150% relative to the control (100%))” value was determined as 10 nM and the maximum response (Emax) came out at 388%.

In the case of `COC/C=C/c1cc(F)c2c(c1)CCC2Nc1nc2[nH]c(O[C@@H]3CO[C@H](CO)C3)nc2cc1Cl` (stereo partly drawn) [Compound I-1-24], the “EC150 (compound concentration showing 150% relative to the control (100%))” value worked out at 25 nM and the Emax turned out to be 423%.

In the case of `OCCOc1cc(F)c2c(c1)CCC2Nc1nc2nc(O[C@@H]3CO[C@H]4[C@@H]3OC[C@H]4O)[nH]c2cc1Cl` (stereo partly drawn) [Compound I-1-32], the “EC150 (compound concentration showing 150% relative to the control (100%))” value is given as 2.3 nM and the Emax amounted to 389%.

Take `O[C@@H]1CO[C@H]2[C@@H]1OC[C@H]2Oc1nc2nc(NC3CCc4cc(OC5CCOCC5)cc(F)c43)c(Cl)cc2[nH]1` (stereo partly drawn) [Compound I-1-35]: the “EC150 (compound concentration showing 150% relative to the control (100%))” value was 4.3 nM and the Emax was found to be 402%.
